{"source": "ChEMBL document CHEMBL1201862", "about": "“PubChem BioAssay data set” (2004)", "assay_in_all_cases": "NCI anticancer screen, dose series, 48 h", "key": {"K562": {"system": "K562"}, "OVCAR-3": {"system": "OVCAR-3"}, "786-0": {"system": "786-0"}, "ACHN": {"system": "ACHN"}, "M19-MEL": {"system": "M19-MEL"}, "SW-620": {"system": "SW-620"}, "TK-10": {"system": "TK-10"}, "KM12": {"system": "KM12"}, "DMS-114": {"system": "DMS-114"}, "NCI-H226": {"system": "NCI-H226"}, "Malme-3M": {"system": "Malme-3M"}, "OVCAR-5": {"system": "OVCAR-5"}, "RXF 631": {"system": "RXF 631"}, "OVCAR-4": {"system": "OVCAR-4"}, "M14": {"system": "M14"}, "NCI-H522": {"system": "NCI-H522"}, "UACC-257": {"system": "UACC-257"}, "SF-539": {"system": "SF-539"}, "SF-295": {"system": "SF-295"}, "HOP-62": {"system": "HOP-62"}, "SNB-75": {"system": "SNB-75"}, "SF-268": {"system": "SF-268"}, "CCRF-CEM": {"system": "CCRF-CEM"}, "SK-MEL-5": {"system": "SK-MEL-5"}, "NCI-H460": {"system": "NCI-H460"}, "IGROV-1": {"system": "IGROV-1"}, "HL-60": {"system": "HL-60"}, "UACC-62": {"system": "UACC-62"}, "A549": {"system": "A549"}, "UO-31": {"system": "UO-31"}, "HT-29": {"system": "HT-29"}, "SN12C": {"system": "SN12C"}, "LXFL 529": {"system": "LXFL 529"}, "SR": {"system": "SR"}, "SK-MEL-28": {"system": "SK-MEL-28"}, "COLO 205": {"system": "COLO 205"}, "HCT-116": {"system": "HCT-116"}, "LOX IMVI": {"system": "LOX IMVI"}, "SK-MEL-2": {"system": "SK-MEL-2"}, "OVCAR-8": {"system": "OVCAR-8"}, "RXF 393": {"system": "RXF 393"}, "SK-OV-3": {"system": "SK-OV-3"}, "NCI-H23": {"system": "NCI-H23"}, "EKVX": {"system": "EKVX"}, "DMS-273": {"system": "DMS-273"}, "U-251": {"system": "U-251"}, "HCT-15": {"system": "HCT-15"}, "MOLT-4": {"system": "MOLT-4"}, "RPMI-8226": {"system": "RPMI-8226"}, "A498": {"system": "A498"}, "SNB-78": {"system": "SNB-78"}, "SNB-19": {"system": "SNB-19"}, "HCC 2998": {"system": "HCC 2998"}}, "note": "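Exposure lasted 48 hours, with cells grown in 96-well plates and compounds tested at five concentrations. GI50 is the concentration that inhibits growth by half.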 Calls of active or inactive are those of the source. Cut-off read from the data, not from the text of the source: active = GI50 up to about 1.1 µM and inactive = higher.", "data": [{"smiles": "CCC(Oc1ccc(OC)c2ccccc(=O)c12)C(=O)O", "note": "(stereo not drawn)", "values": [{"measurement": "GI50", "setting": "K562", "result": "> 100 µM (inactive)"}, {"measurement": "GI50", "setting": "OVCAR-3", "result": "> 100 µM (inactive)"}, {"measurement": "GI50", "setting": "786-0", "result": "> 100 µM (inactive)"}, {"measurement": "GI50", "setting": "ACHN", "result": "> 100 µM (inactive)"}, {"measurement": "GI50", "setting": "M19-MEL", "result": "> 100 µM (inactive)"}, {"measurement": "GI50", "setting": "SW-620", "result": "> 100 µM (inactive)"}, {"measurement": "GI50", "setting": "TK-10", "result": "> 100 µM (inactive)"}, {"measurement": "GI50", "setting": "KM12", "result": "> 100 µM (inactive)"}, {"measurement": "GI50", "setting": "DMS-114", "result": "> 100 µM (inactive)"}, {"measurement": "GI50", "setting": "NCI-H226", "result": "> 100 µM (inactive)"}, {"measurement": "GI50", "setting": "Malme-3M", "result": "> 100 µM (inactive)"}, {"measurement": "GI50", "setting": "OVCAR-5", "result": "> 100 µM (inactive)"}, {"measurement": "GI50", "setting": "RXF 631", "result": "> 100 µM (inactive)"}, {"measurement": "GI50", "setting": "OVCAR-4", "result": "> 100 µM (inactive)"}, {"measurement": "GI50", "setting": "M14", "result": "> 100 µM (inactive)"}, {"measurement": "GI50", "setting": "NCI-H522", "result": "> 100 µM (inactive)"}, {"measurement": "GI50", "setting": "UACC-257", "result": "> 100 µM (inactive)"}, {"measurement": "GI50", "setting": "SF-539", "result": "> 100 µM (inactive)"}, {"measurement": "GI50", "setting": "SF-295", "result": "> 100 µM (inactive)"}, {"measurement": "GI50", "setting": "HOP-62", "result": "> 100 µM (inactive)"}, {"measurement": "GI50", "setting": "SNB-75", "result": "> 100 µM (inactive)"}, {"measurement": "GI50", "setting": "SF-268", "result": "> 100 µM (inactive)"}, {"measurement": "GI50", "setting": "CCRF-CEM", "result": "> 100 µM (inactive)"}, {"measurement": "GI50", "setting": "SK-MEL-5", "result": "> 100 µM (inactive)"}, {"measurement": "GI50", "setting": "NCI-H460", "result": "> 100 µM (inactive)"}, {"measurement": "GI50", "setting": "IGROV-1", "result": "> 100 µM (inactive)"}, {"measurement": "GI50", "setting": "HL-60", "result": "> 100 µM (inactive)"}, {"measurement": "GI50", "setting": "UACC-62", "result": "> 100 µM (inactive)"}, {"measurement": "GI50", "setting": "A549", "result": "> 100 µM (inactive)"}, {"measurement": "GI50", "setting": "UO-31", "result": "> 100 µM (inactive)"}, {"measurement": "GI50", "setting": "HT-29", "result": "> 100 µM (inactive)"}, {"measurement": "GI50", "setting": "SN12C", "result": "> 100 µM (inactive)"}, {"measurement": "GI50", "setting": "LXFL 529", "result": "> 100 µM (inactive)"}, {"measurement": "GI50", "setting": "SR", "result": "> 100 µM (inactive)"}, {"measurement": "GI50", "setting": "SK-MEL-28", "result": "> 100 µM (inactive)"}, {"measurement": "GI50", "setting": "COLO 205", "result": "> 100 µM (inactive)"}, {"measurement": "GI50", "setting": "HCT-116", "result": "> 100 µM (inactive)"}, {"measurement": "GI50", "setting": "LOX IMVI", "result": "> 100 µM (inactive)"}, {"measurement": "GI50", "setting": "SK-MEL-2", "result": "> 100 µM (inactive)"}, {"measurement": "GI50", "setting": "OVCAR-8", "result": "> 100 µM (inactive)"}, {"measurement": "GI50", "setting": "RXF 393", "result": "> 100 µM (inactive)"}, {"measurement": "GI50", "setting": "SK-OV-3", "result": "> 100 µM (inactive)"}, {"measurement": "GI50", "setting": "NCI-H23", "result": "> 100 µM (inactive)"}, {"measurement": "GI50", "setting": "EKVX", "result": "> 100 µM (inactive)"}, {"measurement": "GI50", "setting": "DMS-273", "result": "> 100 µM (inactive)"}, {"measurement": "GI50", "setting": "U-251", "result": "> 100 µM (inactive)"}, {"measurement": "GI50", "setting": "HCT-15", "result": "> 100", "unit": "µM"}, {"measurement": "GI50", "setting": "MOLT-4", "result": "> 100 µM (inactive)"}, {"measurement": "GI50", "setting": "RPMI-8226", "result": "> 100 µM (inactive)"}, {"measurement": "GI50", "setting": "A498", "result": "> 100 µM (inactive)"}, {"measurement": "GI50", "setting": "SNB-78", "result": "> 100 µM (inactive)"}, {"measurement": "GI50", "setting": "SNB-19", "result": "> 100 µM (inactive)"}, {"measurement": "GI50", "setting": "HCC 2998", "result": "> 100 µM (inactive)"}]}]}
